Test results from PubChem BioAssay AID330 (DTP/NCI, 2004).
Several values for one entry are separate records, joined by “and”; a condition that tells them apart may be missing. Equal entries are not always repeated. Toxic doses and inconclusive results are not listed.

Tested on: P388 leukemia ip, CD2F1 mice, survival T/C
Experiment: NCI In Vivo Anticancer Drug Screen. Data for tumor model P388 Leukemia (intraperitoneal) in CD2F1 (CDF1) mice
Conditions: endpoint: median survival time, higher = longer survival
Method in brief: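 Mice carrying the transplanted tumor received test compound or vehicle. Survival was recorded in each group, and the value is the treated-group measurement divided by that of the vehicle-treated control group.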

[1] = dose: 60.0 mg/kg/injection, schedule: Q01DX005 (ip), vehicle: saline
[2] = dose: 120.0 mg/kg/injection, schedule: Q01DX005 (ip), vehicle: saline
[3] = dose: 240.0 mg/kg/injection, schedule: Q01DX005 (ip), vehicle: saline
[4] = dose: 50.0 mg/kg/injection, schedule: Q01DX009 (ip), vehicle: saline
[5] = dose: 100.0 mg/kg/injection, schedule: Q01DX009 (ip), vehicle: saline
[6] = dose: 50.0 mg/kg/injection, schedule: Q01DX009 (ip), vehicle: Klucel (hydroxypropylcellulose) (HPC)
[7] = dose: 100.0 mg/kg/injection, schedule: Q01DX009 (ip), vehicle: Klucel (hydroxypropylcellulose) (HPC)
[8] = dose: 100.0 mg/kg/injection, schedule: Q01DX001 (ip), vehicle: Klucel (hydroxypropylcellulose) (HPC)
[9] = dose: 200.0 mg/kg/injection, schedule: Q01DX001 (ip), vehicle: Klucel (hydroxypropylcellulose) (HPC)
[10] = dose: 400.0 mg/kg/injection, schedule: Q01DX001 (ip), vehicle: Klucel (hydroxypropylcellulose) (HPC)
[11] = dose: 50.0 mg/kg/injection, schedule: Q01DX005 (ip), vehicle: Klucel (hydroxypropylcellulose) (HPC)
[12] = dose: 100.0 mg/kg/injection, schedule: Q01DX005 (ip), vehicle: Klucel (hydroxypropylcellulose) (HPC)
[13] = dose: 200.0 mg/kg/injection, schedule: Q01DX005 (ip), vehicle: Klucel (hydroxypropylcellulose) (HPC)
[14] = dose: 50.0 mg/kg/injection, schedule: Q01DX005 (ip), vehicle: saline
[15] = dose: 100.0 mg/kg/injection, schedule: Q01DX005 (ip), vehicle: saline
[16] = dose: 200.0 mg/kg/injection, schedule: Q01DX005 (ip), vehicle: saline
[17] = dose: 60.0 mg/kg/injection, schedule: Q01DX005 (ip), vehicle: saline with Tween-80
[18] = dose: 120.0 mg/kg/injection, schedule: Q01DX005 (ip), vehicle: saline with Tween-80
[19] = dose: 12.5 mg/kg/injection, schedule: Q01DX005 (ip), vehicle: saline with Tween-80
[20] = dose: 25.0 mg/kg/injection, schedule: Q01DX005 (ip), vehicle: saline with Tween-80
[21] = dose: 50.0 mg/kg/injection, schedule: Q01DX005 (ip), vehicle: saline with Tween-80
[22] = dose: 100.0 mg/kg/injection, schedule: Q01DX005 (ip), vehicle: saline with Tween-80
[23] = dose: 200.0 mg/kg/injection, schedule: Q01DX005 (ip), vehicle: saline with Tween-80

## O=C1NC2(CCCCC2)C(=O)N1CCN1C(=O)NC2(CCCCC2)C1=O
dose: 0.75 mg/kg/injection, schedule: Q01DX009 (ip), vehicle: saline
  T/C: 104 % of control
dose: 1.5 mg/kg/injection, schedule: Q01DX009 (ip), vehicle: saline
  T/C: 91 % of control
dose: 3.0 mg/kg/injection, schedule: Q01DX009 (ip), vehicle: saline
  T/C: 106 % of control
dose: 6.0 mg/kg/injection, schedule: Q01DX009 (ip), vehicle: saline
  T/C: 118 % of control
dose: 12.0 mg/kg/injection, schedule: Q01DX009 (ip), vehicle: saline
  T/C: 106 % of control

## C=CCN(CC=C)C1C(O)CCOC1OC (stereo not drawn)
[1]
  T/C: 109 % of control and 101 % of control
[2]
  T/C: 107 % of control and 103 % of control
[3]
  T/C: 109 % of control and 102 % of control

## Cc1[nH]oc(=O)c1C(=O)O
[4]
  T/C: 100 % of control
[5]
  T/C: 99 % of control
dose: 200.0 mg/kg/injection, schedule: Q01DX009 (ip), vehicle: saline
  T/C: 89 % of control

## COc1ccc(C2=Nc3ccccc3SC(c3ccc(OC)cc3)C2)cc1 (stereo not drawn)
[6]
  T/C: 102 % of control
[7]
  T/C: 96 % of control
dose: 200.0 mg/kg/injection, schedule: Q01DX009 (ip), vehicle: Klucel (hydroxypropylcellulose) (HPC)
  T/C: 88 % of control

## c1ccc(C2=NCCN=C2c2ccccc2)cc1
[8]
  T/C: 94 % of control
[9]
  T/C: 99 % of control
[10]
  T/C: 93 % of control

## O=C(O)CCSCCCCCCCCCCSCCC(=O)O
[11]
  T/C: 98 % of control
[12]
  T/C: 93 % of control
[13]
  T/C: 86 % of control

## O=S1(=O)CCN(Cc2ccco2)CC1
[6]
  T/C: 100 % of control
[7]
  T/C: 99 % of control

## COC(=O)/C(C(C)=O)=C1\C(=O)OCC1(C)C
dose: 100.0 mg/kg/injection, schedule: Q04DX003 (ip), vehicle: saline
  T/C: 102 % of control
dose: 200.0 mg/kg/injection, schedule: Q04DX003 (ip), vehicle: saline
  T/C: 105 % of control
dose: 400.0 mg/kg/injection, schedule: Q04DX003 (ip), vehicle: saline
  T/C: 100 % of control

## O=C(O)C1CCC2(CC1)SCC1(CS2)CSC2(CCC(C(=O)O)CC2)SC1 (stereo not drawn)
dose: 7.5 mg/kg/injection, schedule: Q01DX009 (ip), vehicle: saline with Tween-80
  T/C: 104 % of control
dose: 15.0 mg/kg/injection, schedule: Q01DX009 (ip), vehicle: saline with Tween-80
  T/C: 99 % of control
dose: 30.0 mg/kg/injection, schedule: Q01DX009 (ip), vehicle: saline with Tween-80
  T/C: 107 % of control

## CC(C)(C)SC#CC(Sc1ccccc1)=C(Sc1ccccc1)Sc1ccccc1
dose: 100.0 mg/kg/injection, schedule: Q04DX003 (ip), vehicle: saline with Tween-80
  T/C: 100 % of control
dose: 200.0 mg/kg/injection, schedule: Q04DX003 (ip), vehicle: saline with Tween-80
  T/C: 100 % of control
dose: 400.0 mg/kg/injection, schedule: Q04DX003 (ip), vehicle: saline with Tween-80
  T/C: 100 % of control

## CN(C)C(CCC(=O)O)C(=O)O (stereo not drawn)
[14]
  T/C: 102 % of control
[15]
  T/C: 97 % of control
[16]
  T/C: 98 % of control

## COc1ccc(CN2CCc3c(cccc3[N+](=O)[O-])C2)cc1
dose: 100.0 mg/kg/injection, schedule: Q04DX003 (ip), vehicle: Klucel (hydroxypropylcellulose) (HPC)
  T/C: 98 % of control
dose: 200.0 mg/kg/injection, schedule: Q04DX003 (ip), vehicle: Klucel (hydroxypropylcellulose) (HPC)
  T/C: 103 % of control
dose: 400.0 mg/kg/injection, schedule: Q04DX003 (ip), vehicle: Klucel (hydroxypropylcellulose) (HPC)
  T/C: 96 % of control

## CN(C)CCOc1ccc2c(c1)C1=NN(c3ccccc3)C(=O)CC1CO2 (stereo not drawn)
[17]
  T/C: 103 % of control
[18]
  T/C: 99 % of control

## C[CH2][GeH][CH2]C.C[CH2][Ge]([CH2]C)[CH2]C
[4]
  T/C: 93 % of control
[5]
  T/C: 90 % of control

## CN1c2ccccc2S(=O)(=O)n2c(COc3ccc(Cl)cc3)nnc21
[19]
  T/C: 100 % of control
[20]
  T/C: 100 % of control
[21]
  T/C: 106 % of control

## O=C(Nc1ccccc1)Sc1ccc(Cl)cc1
[20]
  T/C: 115 % of control
[21]
  T/C: 121 % of control
[22]
  T/C: 115 % of control and 123 % of control
[23]
  T/C: 124 % of control

## O=C1Cn2c(c3ccccc3nc2=O)N1
[21]
  T/C: 104 % of control
[22]
  T/C: 103 % of control
[23]
  T/C: 106 % of control

## O=C(Cc1ccc(CC(=O)NCCCCc2ccccc2)cc1)NCCCCc1ccccc1
[17]
  T/C: 88 % of control
[18]
  T/C: 88 % of control
dose: 240.0 mg/kg/injection, schedule: Q01DX005 (ip), vehicle: saline with Tween-80
  T/C: 86 % of control

## COc1cc2c(cc1O)N=C[C@@H]1CCC(O)N1C2=O (mixture of isomers)
dose: 1.0 mg/kg/injection, schedule: Q01DX009 (ip), vehicle: saline
  T/C: 96 % of control
dose: 2.0 mg/kg/injection, schedule: Q01DX009 (ip), vehicle: saline
  T/C: 104 % of control

## CC(=O)N1CCN(C(C)=O)C2C1N(C(C)=O)CCN2C(C)=O (stereo not drawn)
[14]
  T/C: 117 % of control
[1]
  T/C: 105 % of control
[15]
  T/C: 105 % of control
[2]
  T/C: 107 % of control
[16]
  T/C: 115 % of control
[3]
  T/C: 100 % of control

## Cn1c(=O)c2nc(-c3cccnc3)cnc2n(C)c1=O
[8]
  T/C: 105 % of control
[9]
  T/C: 105 % of control
[10]
  T/C: 105 % of control

## CC1=C[S+](c2ccccc2)c2cccc3cc4ccccc4c1c23 (stereo not drawn)
dose: 0.62 mg/kg/injection, schedule: Q04DX003 (ip), vehicle: saline
  T/C: 100 % of control
dose: 1.25 mg/kg/injection, schedule: Q04DX003 (ip), vehicle: saline
  T/C: 100 % of control
dose: 2.5 mg/kg/injection, schedule: Q04DX003 (ip), vehicle: saline
  T/C: 104 % of control

## OCC1CC(c2ccccc2)=NO1 (stereo not drawn)
dose: 60.0 mg/kg/injection, schedule: Q01DX005 (ip), vehicle: Klucel (hydroxypropylcellulose) (HPC)
  T/C: 101 % of control
dose: 120.0 mg/kg/injection, schedule: Q01DX005 (ip), vehicle: Klucel (hydroxypropylcellulose) (HPC)
  T/C: 100 % of control
dose: 240.0 mg/kg/injection, schedule: Q01DX005 (ip), vehicle: Klucel (hydroxypropylcellulose) (HPC)
  T/C: 101 % of control

## COC(=O)C1=C(O)/C(=C\c2ccccc2)NC1=O
[11]
  T/C: 101 % of control
[12]
  T/C: 108 % of control
[13]
  T/C: 104 % of control

## CCCCCCCN(CCCCCCC)CC(O)c1ccc2cc(Cl)c3ccccc3c2c1 (stereo not drawn)
[21]
  T/C: 107 % of control
[22]
  T/C: 112 % of control
[23]
  T/C: 105 % of control

## CN(C)C1c2cc3ccccc3nc2-c2ccccc2C1(C)C (stereo not drawn)
[19]
  T/C: 95 % of control
[20]
  T/C: 95 % of control
[21]
  T/C: 100 % of control and 101 % of control
[23]
  T/C: 97 % of control

## Fc1nn2ccccc2c1C(F)(F)F
[11]
  T/C: 99 % of control
[12]
  T/C: 104 % of control
[13]
  T/C: 100 % of control

## N/C=N/O
dose: 25.0 mg/kg/injection, schedule: Q01DX009 (ip), vehicle: saline
  T/C: 101 % of control
[4]
  T/C: 101 % of control
[5]
  T/C: 111 % of control and 122 % of control
dose: 174.0 mg/kg/injection, schedule: Q01DX009 (ip), vehicle: saline
  T/C: 123 % of control
dose: 260.0 mg/kg/injection, schedule: Q01DX009 (ip), vehicle: saline
  T/C: 90 % of control
dose: 400.0 mg/kg/injection, schedule: Q01DX009 (ip), vehicle: saline
  T/C: 161 % of control

## O=C(NC(=S)c1ccc(Cl)cc1)Nc1ccccc1
dose: 25.0 mg/kg/injection, schedule: Q01DX009 (ip), vehicle: saline with Tween-80
  T/C: 99 % of control
dose: 50.0 mg/kg/injection, schedule: Q01DX009 (ip), vehicle: saline with Tween-80
  T/C: 94 % of control
dose: 100.0 mg/kg/injection, schedule: Q01DX009 (ip), vehicle: saline with Tween-80
  T/C: 99 % of control
